Results reported in PMC7065771, “Dietary supplementation of recombinant antimicrobial peptide Epinephelus lanceolatus piscidin improves growth performance and immune response in Gallus gallus domesticus” (PLoS ONE, 2020).

Tests used:
[1] = tested on: Interleukin-1β; experiment: Serum ELISA after dietary supplementation; type: in vivo, Gallus gallus domesticus; settings: dietary supplementation 35 days, between groups
Excerpt: (§1) A total of 189 male or female 2-day-old G. g. domesticus were randomly assigned to seven dietary treatment groups, including rEP (0.75, 1.5, 3.0, 6.0 and 12%), spiraline-A (Juily Pharmaceutical Co., LTD. San Sia, Taipei Hsien, Taiwan), and basal diet groups. Each treatment group consisted of one cage with twenty-seven G. g. domesticus. The composition of the fodder is presented in S1b–S1d Table. The animals were allowed ad libitum access to fodder and water for the duration of the trial, beginning from 3 days of age. The total time of feeding was 35 days. The G. g. domesticus were maintained in a cage (animal container) with a constant environment (28.9–37.8°C, 12/12 h light-dark cycle). rEP fodder and fecal sewage were not directly discharged to the outside.
(§2) Body weight and survival rate were monitored daily during the experimental period. The weight gain, feed efficiency (FE), protein efficiency ratio (PER), and survival percentage were calculated. After 35 days of treatment, the G. g. domesticus were euthanized, blood samples were collected and serum was obtained by centrifugation (3000 ×g for 15 min at 4°C). Serum was kept at -80°C until analysis. Enzyme-linked immunosorbent assay (ELISA) was performed in accordance with the manufacturer’s standard procedures to determine the levels of immunological factors, including TNF-α, Interleukin-1β, Interleukin-6, Interleukin-10, Lysozyme, Immunoglobin-G (IgG), and Interferon-γ. Chicken serum samples were analyzed with ELISA kits from ABclonal Inc. (Woburn, MA, USA). After the reaction was completed, the optical density (OD) was measured at 450 nm on a microplate reader (SpectraMax® i3, Molecular Devices, Lagerhausstrasse, Wals, Austria).

[2] = tested on: Interferon-γ; experiment: Serum ELISA after dietary supplementation; type: in vivo, Gallus gallus domesticus; settings: 1.5% in diet, 35 days, compared to antibiotic group (P = 0.0043) and control group (P = 0.0073)
Excerpt: as §1, §2

[3] = tested on: Interleukin-6; experiment: Serum ELISA after dietary supplementation; type: in vivo, Gallus gallus domesticus; settings: dietary supplementation 35 days, between groups
Excerpt: as §1, §2

[4] = tested on: Interleukin-10; experiment: Serum ELISA after dietary supplementation; type: in vivo, Gallus gallus domesticus; settings: rEP-supplemented group, 35 days, compared to control group (P = 0.0341), not different than the antibiotic group
Excerpt: as §1, §2

[5] = tested on: TNF-α; experiment: Serum ELISA after dietary supplementation; type: in vivo, Gallus gallus domesticus; settings: dietary supplementation 35 days, between groups
Excerpt: as §1, §2

[6] = tested on: Lysozyme; experiment: Serum ELISA after dietary supplementation; type: in vivo, Gallus gallus domesticus; settings: dietary supplementation 35 days, between groups
Excerpt: as §1, §2

[7] = tested on: Gallus gallus domesticus; experiment: Dietary supplementation trial, growth performance and survival; type: in vivo; settings: ad libitum, 35 days (table title: 4 weeks), n = 27; for FE (feed efficiency) / PER (protein efficiency ratio) / Weight gain: mean ± SD
Excerpt: as §1, §2
Data were analyzed with Prism 7 software (GraphPad Inc., La Jolla, CA, USA). Values represent the mean ± standard deviation (SD). P < 0.05 was considered significant for one-way Analysis of variance (ANOVA) with Tukey’s multiple comparison test.

[8] = tested on: Staphylococcus aureus (BCRC 10780); experiment: Inhibition zone (disk diffusion) assay; type: cell-based; settings: then disk diffusion 16 h at 37°C
Procedure: (§3) All assays were performed in triplicate.
(§4) The antimicrobial activity of rEP from flask cultures was evaluated by determining its ability to prevent growth of Gram-positive and Gram-negative bacteria with a disk diffusion assay. […] The most susceptible pathogens were R. anatipestifer (CFC27) and R. anatipestifer (CFC437) (Table 3a). Next, we investigated the thermostability of flask-fermented rEP with regard to its toxicity toward S. aureus (BCRC 10780), E. coli (BCRC 10675) and P. aeruginosa (ATCC 19660). Empty vector with no insert in P. pastoris was used as a control. Thermostability was measured by disk diffusion assay after cultures were incubated for 5 min at 40, 60, 80, or 100°C (Table 3b).

[9] = tested on: Riemerella anatipestifer (RA3); experiment: Inhibition zone (disk diffusion) assay; type: cell-based; settings: disk paper 16 h at 37°C, shake-flask supernatant 120 h after induction
Procedure: as §3, §4

[10] = tested on: Riemerella anatipestifer (CFC437); experiment: Inhibition zone (disk diffusion) assay; type: cell-based; settings: disk paper 16 h at 37°C, shake-flask supernatant 120 h after induction
Procedure: as §3, §4

[11] = tested on: duodenum villus; experiment: Intestinal morphology, histological analysis; type: in vivo, Gallus gallus domesticus; settings: rEP animals compared to the control group, hematoxylin and eosin staining (S3 Fig)
Procedure: (§5) The growth promoting action of EP may be related to intestinal absorption and as such, small villus morphology was evaluated in a previous study. […] Moreover, growth enhancement has been observed in other reports. For example, feeding mice with PR39 peptide (4.7 kDa proline-rich AMP)-expressing Lactobacillus casei caused jejunum and duodenum villus height in the intestinal villi to increase. Use of recombinant porcine β-defensin 2 (rpBD2) as a feed additive for weaned piglets also produced increases in intestinal villus height of the duodenum and jejunum. Additionally, birds fed with AMP-A3 diet had increased villus height of the duodenum, jejunum and ileum. […] Fig). […] Supplementary file pone.0230021.s003.TIF: S3 Fig Effects of orally administered a rEP on posture, body weight, intestinal morphology, and gut flora. (a) After 28 days of feeding the 1.5% rEP-receiving chickens were larger than the spiraline A and basal diet controls. (b) The effects of feeding 1.5% rEP on body weight. (c) Representative picture of hematoxylin and eosin staining of intestinal villi and crypts. (d) The intestinal villus length and crypt depth were measured. (e) The effects of orally administrated the spiraline A, basal diet, and 1.5% rEP on intestinal microflora in G. g. domesticus. Relative proportions of bacterial families are shown. […]

[12] = tested on: intestinal microflora; experiment: Intestinal microflora in duodenum; type: in vivo, Gallus gallus domesticus; settings: 1.5% rEP in diet, compared to spiraline A and basal diet groups (S3e Fig)
Procedure: as §5

[13] = diet with 0.75% rEP spray-dried powder
[14] = diet with 1.5% rEP spray-dried powder
[15] = diet with 3.0% rEP spray-dried powder
[16] = diet with 6.0% rEP spray-dried powder
[17] = diet with 12.0% rEP spray-dried powder

Sequence: EFFIFHIIKGLFHAGRMIHGLVNRRRHRHHHHHH [rEP, recombinant His-tagged Epinephelus lanceolatus piscidin from Pichia pastoris, used as crude culture supernatant or spray-dried powder]
- Serum IL-1β level [1]: No significant changes
- Serum IFN-γ level [2]: significantly increased
- Serum IL-6 level [3]: No significant changes
- Serum IL-10 level [4]: significantly higher
- Serum TNF-α level [5]: No significant changes
- Serum Lysozyme (Lyz) level [6]: No significant changes
- FE (feed efficiency) [7, 13]: 0.53±0.03
- PER (protein efficiency ratio) [7, 13]: 1.58±0.09
- Weight gain [7, 13]: 2531.80±142.13%
- Survival [7, 13]: 92.60%
- FE (feed efficiency) [7, 14]: 0.58±0.03
- PER (protein efficiency ratio) [7, 14]: 1.8±0.08
- Weight gain [7, 14]: 2727.42±116.08%
- Survival [7, 14]: 100%
- FE (feed efficiency) [7, 15]: 0.57±0.02
- PER (protein efficiency ratio) [7, 15]: 1.86±0.08
- Weight gain [7, 15]: 2809.71±119.30%
- Survival [7, 15]: 96.20%
- FE (feed efficiency) [7, 16]: 0.57±0.02
- PER (protein efficiency ratio) [7, 16]: 2.03±0.08
- Weight gain [7, 16]: 2738.11±109.04%
- Survival [7, 16]: 100%
- FE (feed efficiency) [7, 17]: 0.48±0.04
- PER (protein efficiency ratio) [7, 17]: 2.17±0.16
- Weight gain [7, 17]: 2181.26±158.95%
- Survival [7, 17]: 96.20%
- Inhibition zone diameter after heat treatment ([8]; thermostability: flask supernatant incubated 5 min at 40°C): 10.6±1.5 mm
- Inhibition zone diameter after heat treatment ([8]; thermostability: flask supernatant incubated 5 min at 60°C): 9.1±0.7 mm
- Inhibition zone diameter after heat treatment ([8]; thermostability: flask supernatant incubated 5 min at 80°C): 9.3±0.5 mm
- Inhibition zone diameter after heat treatment ([8]; thermostability: flask supernatant incubated 5 min at 100°C): 9.3±0.5 mm
- Inhibition zone diameter ([9]; first of two values printed): 10, 10 mm
- Inhibition zone diameter ([9]; second of two values printed): 10, 10 mm
- Inhibition zone diameter ([10]; first of two values printed): 11 mm
- Inhibition zone diameter ([10]; second of two values printed): 13 mm
- Duodenum villus height [11]: significantly greater
- Numbers of Enterobacteriaceae and Staphylococcaceae in duodenum [12]: decreasing
- Numbers of Lactobacillaceae and Entercoccaceae in duodenum [12]: significantly increased
